# Measured values reported in US12116358B2, “Substituted indoles and methods of use thereof” (EPIZYME, INC., priority 2018, dated 2024).
# Read-outs that look alike come from different tables or passages of the source.
# How the values were obtained:
# [1] = molecular target: T1, SETD2(1434-1711) (Homo sapiens, UniProt Q9BYW2); test: SETD2 (1434-1711) assay; format: biochemical; settings: read-out: SETD2 (1434-1711)
# T1 construct: SETD2 (1434-1711) Assay; catalogue N/A
# T1 sequence (Q9BYW2 1434-1711): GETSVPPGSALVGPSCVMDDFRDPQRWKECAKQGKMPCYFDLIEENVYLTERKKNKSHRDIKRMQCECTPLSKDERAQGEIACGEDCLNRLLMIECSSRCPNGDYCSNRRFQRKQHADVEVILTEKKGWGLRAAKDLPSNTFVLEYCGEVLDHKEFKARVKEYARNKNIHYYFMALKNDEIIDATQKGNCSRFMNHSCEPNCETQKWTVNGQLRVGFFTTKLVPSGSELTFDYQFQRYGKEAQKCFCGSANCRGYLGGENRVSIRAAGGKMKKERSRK
# [2] = system: H3K36me3 in A549 cells; test: In-Cell Western (ICW) assay of SETD2 inhibitors (A549 assay); format: cell-based, human; settings: A549 cells, read-out: SETD2 A549
# Outline: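 A549 cells seeded at 4,000/well onto compound and incubated 3 days at 37° C. Methanol-fixed cells stained overnight at 4° C with anti-H3K36me3 (1:1000), then IRDye 800CW secondary with DRAQ5 DNA counterstain. Plates read by Licor imaging at 700 and 800 channels.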
SMILES,IC50 [1] [µM],IC50 [2] [µM],IC50 ([2]; Homo sapiens) [µM]
Cc1ccc(F)c2cc(C(=O)Nc3cccc(C4COC4)c3)[nH]c12 [compound 224],0.2,0.5,–
Cc1cccnc1C(NC(=O)c1cc2cccc(C)c2[nH]1)C(C)C (stereo not drawn) [compound 474],4.2,–,8.9
Cc1ccc(F)c2cc(C(=O)NC3CCCC(N4CCC(N(C)C(=O)C(C)(C)O)C4)C3)[nH]c12 (stereo not drawn) [compound 1146],0.04,0.2,–
CC(=O)N1CCN(c2cccc(NC(=O)c3cc4c(F)ccc(Br)c4[nH]3)c2)CC1 [compound 84],0.04,0.2,–
Cc1ccc(F)c2cc(C(=O)Nc3cccc(N4CCN(C(=O)CCO)CC4)c3)[nH]c12 [compound 149],0.07,–,0.3
CC(=O)N1CCN([C@@H]2CCC[C@@H](NC(=O)c3cc4c(F)ccc(C)c4[nH]3)C2)C[C@H]1C(F)(F)F [compound 1072],2.3,–,> 2
Cc1ccc(F)c2cc(C(=O)Nc3cccc(N4CC[C@H](N(C)C)[C@H](F)C4)c3)[nH]c12 [compound 186],0.03,–,0.4
Cc1ccc(F)c2cc(C(=O)NC3CCCC(N4CCC5(CC4)COC(=O)N5)C3)[nH]c12 (stereo not drawn) [compound 895],0.05,–,1.5
Cc1ccc(F)c2cc(C(=O)Nc3cccc(N4CCN(c5ccccc5)CC4)c3)[nH]c12 [compound 312],0.8,–,1.3
Cc1ccc(F)c2cc(C(=O)N[C@H]3CCC[C@@H](c4cccnc4)C3)[nH]c12 [compound 905],2.9,–,> 2
Cc1ccc(F)c2cc(C(=O)Nc3cccc(N4CCN(C)CC4CO)c3)[nH]c12 (stereo not drawn) [compound 277],0.2,–,0.9
Cc1ccc(F)c2cc(C(=O)Nc3cccc(N4CCC5(CCN(CC(F)F)C5)CC4)c3)[nH]c12 [compound 206],0.09,0.4,–
Cc1ccc(F)c2cc(C(=O)Nc3cccc([C@H]4CC[C@@H](N(C)C)C4)c3)[nH]c12 [compound 324],0.05,–,1.5
Cc1ccc(F)c2cc(C(=O)NC3CCCC(c4cncnc4)C3)[nH]c12 (stereo not drawn) [compound 379],> 10,> 2,–
Cc1ccc(F)c2cc(C(=O)Nc3cccc(N4CCN5CCCC5C4)c3)[nH]c12 (stereo not drawn) [compound 220],0.04,0.5,–
Cc1cc(C2CCC(NC(=O)Cc3cccnc3)CC2)cnc1C(NC(=O)c1cc2cccc(C)c2[nH]1)C1CC1 (stereo not drawn) [compound 423],0.6,3.8,–
Cc1ccc(F)c2cc(C(=O)Nc3ncc(C4CCN(C)CC4)[nH]3)[nH]c12 [compound 371],> 10,–,> 2
CC(=O)N1C(C)CN(C2CCCC(NC(=O)c3cc4c(F)ccc(C)c4[nH]3)C2)CC1C (stereo not drawn) [compound 1163],1.6,> 2,–
Cc1ccc(F)c2cc(C(=O)N[C@@H]3CCC[C@H](N4CC[C@H](N(C)C)C4=O)C3)[nH]c12 [compound 1090],0.5,–,1.1
Cc1ccc(F)c2cc(C(=O)Nc3cccc(N4C5COCC4C5)c3)[nH]c12 [compound 422],1.5,3.7,–
Cc1ccc(F)c2cc(C(=O)N[C@@H]3CCC[C@@H](N4CCN5C(=O)OCC5C4)C3)[nH]c12 (stereo partly drawn) [compound 866],0.9,–,> 2
Cc1cccc2cc(C(=O)Nc3ccc4ccc(CN5CCN(C)CC5)cc4c3)[nH]c12 [compound 453],0.7,–,5.8
Cc1ccc(F)c2cc(C(=O)Nc3cccc(NC(=O)C4CCCN4)c3)[nH]c12 (stereo not drawn) [compound 314],0.04,–,1.3
Cc1cc(-c2ccc(CN3CCOCC3)nc2)cnc1C(NC(=O)c1cc2cccc(C)c2[nH]1)C1CC1 (stereo not drawn) [compound 402],0.3,2.5,–
Cc1ccc(F)c2cc(C(=O)Nc3cccc(N4CCN(C5CC5)c5ccccc54)c3)[nH]c12 [compound 555],9.2,> 25,–
Cc1ccc(F)c2cc(C(=O)Nc3cc(F)cc(N4CCC(N(C)C)C4=O)c3)[nH]c12 (stereo not drawn) [compound 3],0.004,0.03,–

SMILES,IC50 [1] [µM],IC50 [2] [µM],IC50 ([2]; Homo sapiens) [µM]
Cc1ccc(F)c2cc(C(=O)N[C@@H]3CCCC(N4CCC5(CC4)CNC(=O)N5)C3)[nH]c12 (stereo partly drawn) [compound 890],0.1,–,> 2
Cc1ccc(F)c2cc(C(=O)Nc3cccc(N4CC5CC4CN5C)c3)[nH]c12 (stereo not drawn) [compound 348],0.07,1.9,–
Cc1ccc(F)c2cc(C(=O)Nc3cccc(-c4ncccn4)c3)[nH]c12 [compound 316],0.1,–,1.4
CC(=O)N1CCN([C@@H]2CCC[C@@H](NC(=O)c3cc4cccc(C)c4[nH]3)C2)CC1 [compound 857],7.4,> 2,–
Cc1ccc(F)c2cc(C(=O)Nc3cccc(-c4cc5ccccn5n4)c3)[nH]c12 [compound 354],0.3,> 2,–
Cc1cc(C(=O)NC2CCN(C)CC2)c(C)nc1C(NC(=O)c1cc2cccc(C)c2[nH]1)C1CC1 (stereo not drawn) [compound 529],8.6,24.9,–
CCN(C(=O)CO)C1CCN(C2CCCC(NC(=O)c3cc4c(F)ccc(C)c4[nH]3)C2)C1 (stereo not drawn) [compound 1053],0.03,0.4,–
Cc1ccc(F)c2cc(C(=O)Nc3cccc([C@H]4CC[C@H](N(C)C)C4)c3)[nH]c12 [compound 264],0.02,–,0.7
Cc1ccc(F)c2cc(C(=O)Nc3cccc(CCN)c3)[nH]c12 [compound 418],0.1,3.4,–
Cc1cccc2cc(C(=O)Nc3ccc4ncncc4c3)[nH]c12 [compound 533],0.4,> 25,–
Cc1ccc(F)c2cc(C(=O)Nc3cccc(N4CCC5(CCCN5CC(F)F)CC4)c3)[nH]c12 [compound 142],0.04,–,0.3
Cc1cc(C(=O)NC2CCN(C)CC2)cnc1C(NC(=O)c1cc2c(F)ccc(C)c2[nH]1)C1CC1 (stereo not drawn) [compound 412],0.1,3.1,–
Cc1ccc(F)c2cc(C(=O)Nc3cccc(N4CCC5(CCN(CC(F)F)CC5)C4)c3)[nH]c12 [compound 259],0.1,–,0.6
CC(=O)N1CCN([C@H]2CCC[C@@H](NC(=O)c3cc4c(F)ccc(C)c4[nH]3)C2)[C@H](C)C1 [compound 1092],0.8,–,0.8
Cc1ccc(F)c2cc(C(=O)NC3COCC(c4cncnc4)C3)[nH]c12 (stereo not drawn) [compound 368],6.1,> 2,–
Cc1cc(C(=O)NC2CCC(N)C2)cnc1C(NC(=O)c1cc2cccc(C)c2[nH]1)C1CC1 (stereo not drawn) [compound 516],0.4,18.5,–
COC(=O)CC(NC(=O)c1cc2cccc(C)c2[nH]1)c1ccc(Br)cc1 (stereo not drawn) [compound 525],12.6,20.9,–
Cc1ccc(F)c2cc(C(=O)Nc3cccc(-c4cnc(N)[nH]4)c3)[nH]c12 [compound 501],0.4,14.6,–
Cc1cccc2cc(C(=O)N[C@H]3CC[C@H](C)CC3)[nH]c12 [compound 504],3.8,14.9,–
Cc1ccc(N2CCN(S(=O)(=O)CCN)CC2)cc1NC(=O)c1cc2cccc(C)c2[nH]1 [compound 476],0.8,–,9.1
Cc1ccc(F)c2cc(C(=O)Nc3cccc(N4CCC(Nc5cccnc5)CC4)c3)[nH]c12 [compound 157],0.05,–,0.3
CC(=O)N1CCN(c2cccc(NC(=O)c3cc4c(F)ccc(C)c4[nH]3)c2F)CC1 [compound 52],0.07,0.1,–
Cc1cccc2cc(C(=O)NC3CC(=O)Nc4ccccc4C3)[nH]c12 (stereo not drawn) [compound 520],12.3,19.8,–
CC(=O)N1CC2CC1CN2[C@H]1CCC[C@@H](NC(=O)c2cc3c(F)ccc(C)c3[nH]2)C1 (stereo partly drawn) [compound 936],0.1,–,0.5
Cc1ccc(F)c2cc(C(=O)NC3CCCC(N4CCN(C(=O)OC(C)C)CC4)C3)[nH]c12 (stereo not drawn) [compound 998],1.5,> 2,–
